From patent publication US20220378715A1, “USE OF CANNABIDIOL PREPARATIONS IN THE TREATMENT OF ABSENCE EPILEPSY” (GW Research Limited, priority 2019, published 2022)

Tests used:
Type in all cases: in vivo, rat
WAG/Rij rats [1] = test: Novel object recognition test (nORT)
Description: (§1) To test the effects bCBD and sCBD on epileptic comorbidities, separate groups (n=10) of treated and vehicle WAG/Rij rats at 6 months of age were subjected to several behavioural tests (see below—cohort 2).
(§2) All behavioural tests were performed 1-hour post-dose in the morning. All experimental groups were subjected to a single test per day. […].
The nORT was performed as previously described by Bartolini et al. with some minor modifications. Briefly, three days before nORT, rats were exposed to a habituation trial lasting 6 min.
During this trial, each rat was allowed to freely explore an opaque open field Plexiglas box (70×70×30 cm). To investigate short-term memory, in the familiarization trial (T1) two identical objects (wood cubes) were located in two opposite corners of the box. Each rat was placed in the centre of the open field, facing away from the sample objects and left to explore freely the objects for a maximum of 5 min, before returning to its home cage. The familiarization trial ended when the rat completed 20 s of exploration for each object.
Exploration was considered directing the nose at a distance <2 cm to the object and/or touching it with the nose and sniffing. After a retention interval of 60 min the test phase (T2) was conducted.
After this session, the rat returned to home cage. The time spent exploring the familiar (F) and the novel object (N) was recorded separately and a discrimination index (DI) was calculated (DI=N−F/N+F). To avoid olfactory cues both the objects and the box were cleaned with 70% ethanol solution after each session.
Furthermore, to avoid place preference, the role (familiar or novel object) and the position of the two objects during T2 were randomly changed. Total distance moved (cm) was also evaluated and analysed for every experimental group in order to check for locomotor deficits.

WAG/Rij rats [2] = test: Three chamber test (TCT), sociability
Description: as §1, §2
Three-chambered approach (sociability) is an automated, widely used and well validated assay that compares time that the subject (rodent) spends with a novel animal versus time spent with a non-social inanimate object.
The three-chamber apparatus is a non-transparent white plastic box with two transparent acrylic partitions with a rectangular opening. The acrylic partitions divide the box into three chambers (left, centre, and right), illuminated at 120 lux. The animal is placed in the middle chamber with the dividers closed to allow it to explore the middle chamber for ten minutes.
After this habituation period, an unfamiliar adult animal is placed inside a small wire cage in one of the side chambers. An identical wire cage with an inanimate object is placed in the opposite chamber. The dividers are then raised, allowing the test subject to move freely throughout all three chambers of the apparatus over a 10-minute test session. […]

WAG/Rij rats [3] = test: Rotarod test (RT); conditions: 10 and 100 mg/Kg; p=0.9455; data not shown
Description: The Rotarod apparatus (Ugo Basile, Varese, Italy) consists of a base platform and a rotating rod with a diameter of 6 cm and a non-slippery surface. The integrity of motor coordination is assessed on the basis of the time the animals keep their balance on the accelerating rotating rod up to a maximum of 10 min (600 s).
Briefly, rats were pre-trained for 2 days in order to reach a stable performance. After the training, the rotation of the rod was gradually accelerated from 5 rpm to 50 rpm. After a maximum of 3 falls from the rod, the test is suspended and the time is recorded, the result is a mean of the 3 measures.

WAG/Rij rats [4] = test: EEG recording of spike wave discharges (SWDs), established absence seizures; conditions: 10 and 100 mg/Kg i.p. twice daily, 14 days; vs control (vehicle); ANOVA across groups; FIG. 2A
Description: The effects of botanically derived purified CBD (>98%) (bCBD) and synthetic CBD (sCBD) at 10 and 100 mg/Kg, i.p. twice daily, for both drugs, was assessed in this animal model, by EEG-recordings and behavioural tests.
WAG/Rij rats were treated with bCBD or sCBD (10 and 100 mg/Kg, i.p. twice daily, for both drugs) over a chronic test period of at least 14 days.
Drug treatment was started at about 6 months of age (n=10 for every dose and drug group) and continued for 14 consecutive days, when experimental tests were performed (treatment was also continued during the experimental procedure phase. Age-matched control (vehicle) WAG/Rij rats (n =10) were kept under the same housing conditions over the same period of time with vehicle (1:1:18, Ethanol:kolliphor HS15:saline; i.p.).
WAG/Rij rats (n=10) underwent 2 EEG-recording periods in 2 consecutive days (one session per day). Every recording session lasted 3 hours and was performed 1 hour after drug administration. […]
All animals were allowed at least 1 week of recovery and handled twice a day. […] The blinded quantification of absence seizures was based on the number and the duration of EEG Spike Wave Discharges (SWDs).
All statistical procedures were performed using GraphPad Prism 6.0 (GraphPad Software, Inc., La Jolla, CA, USA). EEG recordings were subdivided into 30-min epochs, and the duration and number of SWDs were evaluated separately.

WAG/Rij rats [5] = test: Elevated plus maze (EPM); conditions: 10 and 100 mg/Kg; p=0.67; FIG. 3B
Description: as §1, §2
The EPM consists of 2 opposing open arms and 2 opposing closed arms of the same size (45 cm×10 cm) with 10 cm high walls connected by a central platform (10×10 cm) and elevated 80 cm above the floor. Rats are positioned in the central platform facing a closed arm and the number of entries into, time spent on each arm, and central platform are measured.
The maze was systematically cleaned (Disposable towels and 70% ethanol solution) to remove olfactory cues, after each animal was tested. The shorter the time spent in open arms and central platform the higher the anxiety is and vice versa. Mean velocity and total distance moved were also measured and examined for every experimental group.

WAG/Rij rats [6] = test: Passive avoidance (PA)
Description: as §1, §2
Rats were tested in a step-through type passive avoidance apparatus (Ugo Basile, Italy, model 40,550), measuring 57×27×30 cm, consisting of a cage divided into two chambers (light and dark) by a sliding door.
The PA test was carried out over two successive days. Briefly, on day one (pre-acquisition trial or habituation), rats were introduced individually in the light compartment and allowed to freely explore the cage for 5 min. The acquisition or conditioning trial was conducted 15 min after habituation. Rats were individually introduced in the light compartment.; following a 30 s adaptation time, the sliding door between the two compartments was opened. When rats completely entered into the dark compartment, the sliding door was automatically closed and an electrical foot-shock (0.5 mA for 3 s) was delivered via the floor grid.
The latency to enter (s) in the dark compartment was detected and analysed. The retention or memory trial was evaluated 24 h after the acquisition trial, by recording their latency to enter (s) in the dark compartment. The latency to enter in the dark compartment was directly linked to the retention memory: the better the memory, the greater the latency.

WAG/Rij rats [7] = test: Forced swimming test (FST); conditions: for immobility time: sub-chronic, vs control
Description: as §1, §2
The FST, is currently the most reliable method to rapidly screen compounds for antidepressant activity in rodents; we used an FST protocol previously standardized in our laboratories for WAG/Rij rats.
Briefly, rats were placed individually for 6 min into a glass cylinder (height 47 cm, diameter 38 cm) filled with 38 cm of water maintained between 23° C. and 25° C. The total duration of immobility (immobility time) was recorded during the last 4 min of a 6-min testing period. The criterion for immobility and passive swimming (immobility time) was floating vertically in the water while making only those movements essential to keep the head above the surface of the water, which is directly proportional to depressive-like behaviour. At the end of the FST, rats were removed and dried with a towel before being returned to their home cage. Mean swimming velocity and total distance moved were also measured and examined for every experimental group in order to check for any obvious locomotor impairment.

## C=C(C)[C@@H]1CCC(C)=C[C@H]1c1c(O)cc(CCCCC)cc1O [sCBD, cannabidiol]
WAG/Rij rats [1]; 100 mg/Kg, vs vehicle
  discrimination index (DI): significantly increased
WAG/Rij rats [1]; 10 and 100 mg/Kg, ANOVA across groups, FIG. 3D
  discrimination index (DI), overall: significantly (F4,45=6.009; p=0.0006; n=10 per group) affect
WAG/Rij rats [1]; lower dose (10 mg/Kg), vs control
  discrimination index (DI): did not significantly
WAG/Rij rats [2]; 100 mg/Kg, sub-chronic
  time spent in the novel rat chamber vs the novel object chamber: significantly more time in the novel rat chamber
WAG/Rij rats [2]; higher dose (100 mg/Kg), vs control rats, p<0.0001
  time spent sniffing the novel rats: significantly increased
WAG/Rij rats [3]
  rotarod test results (motor coordination): did not influence
WAG/Rij rats [4]
  mean number of spike wave discharges (nSWDs): did not significantly (F4,45=2.572; p=0.0504; n=10 per group) alter
WAG/Rij rats [5]
  anxiety-like behaviour: not affected
WAG/Rij rats [6]; conditioning trial, 10 and 100 mg/Kg, data not shown
  latency to enter in the dark compartment: no significant effect
WAG/Rij rats [6]; retention session, higher dose (100 mg/Kg), vs control
  latency to enter in the dark compartment: did not significantly modify
WAG/Rij rats [6]; retention session, lower dose (10 mg/Kg), vs control
  latency to enter in the dark compartment: did not significantly modify
WAG/Rij rats [7]; 10 and 100 mg/Kg, vs control (vehicle), ANOVA across groups, FIG. 3A
  immobility time, overall: significantly (F4,45=12.29; p<0.0001; n=10 per group) reduce
WAG/Rij rats [7]; higher dose (100 mg/Kg i.p. twice daily)
  immobility time: significant reduction
WAG/Rij rats [7]; lower dose (10 mg/Kg i.p. twice daily)
  immobility time: not effective
